{"source": "ChEMBL document CHEMBL4610081", "about": "“Anti-inflammatory Metabolites from Chaetomium nigricolor” (J Nat Prod, 2020)", "key": {"RAW264.7 [1]": {"tested_on": "RAW264.7", "assay": "Trans-suppression of NFkappaB in mouse RAW264.7 cells assessed as LPS-induced cytosol-p50 level at 2.5 uM preincubated for 3 hrs followed by LPS-stimulation and measured after 1 hr by Western blot analysis (reference value: 0.28)", "format": "cell-based"}, "RAW264.7 [2]": {"tested_on": "RAW264.7", "assay": "Antiinflammatory activity against mouse RAW264.7 cells assessed as LPS-induced COX-2 mRNA expression at 10 uM preincubated for 3 hrs followed by LPS-stimulation and measured after 24 hrs by RT-PCR analysis (reference value: 14.39)", "format": "functional"}, "RAW264.7 [3]": {"tested_on": "RAW264.7", "assay": "Trans-suppression of NFkappaB in mouse RAW264.7 cells assessed as LPS-induced nuclear-p65 level at 2.5 uM preincubated for 3 hrs followed by LPS-stimulation and measured after 1 hr by Western blot analysis (reference value: 3.3)", "format": "cell-based"}, "RAW264.7 [4]": {"tested_on": "RAW264.7", "assay": "Inhibition of LPS-induced p38 MAPK protein expression in mouse RAW264.7 cell at 10 uM preincubated for 3 hrs followed by LPS-stimulation and measured after 1 hr by Western blot analysis (reference value: 1.1)", "format": "functional"}, "RAW264.7 [5]": {"tested_on": "RAW264.7", "assay": "Inhibition of LPS-induced JNK phosphorylation in mouse RAW264.7 cell preincubated for 3 hrs followed by LPS-stimulation and measured after 1 hr by Western blot analysis", "format": "cell-based"}, "RAW264.7 [6]": {"tested_on": "RAW264.7", "assay": "Antiinflammatory activity against mouse RAW264.7 cells assessed as LPS-induced INOS mRNA expression at 2.5 uM preincubated for 3 hrs followed by LPS-stimulation and measured after 24 hrs by RT-PCR analysis (reference value: 8.2)", "format": "functional"}, "RAW264.7 [7]": {"tested_on": "RAW264.7", "assay": "Trans-suppression of NFkappaB in mouse RAW264.7 cells assessed as LPS-induced cytosol-p50 level at 10 uM preincubated for 3 hrs followed by LPS-stimulation and measured after 1 hr by Western blot analysis (reference value: 0.28)", "format": "cell-based"}, "[8]": {"biological_target": "T1, MAP kinase p38 (Mus musculus) (UniProt P47811+O08911+Q9WUI1+Q9Z1B7)", "assay": "Inhibition of LPS-induced p38 MAPK phosphorylation in mouse RAW264.7 cell at 5 uM preincubated for 3 hrs followed by LPS-stimulation and measured after 1 hr by Western blot analysis (reference value: 5.59)", "format": "cell-based"}, "RAW264.7 [9]": {"tested_on": "RAW264.7", "assay": "Trans-suppression of NFkappaB in mouse RAW264.7 cells assessed as LPS-induced cytosol-p50 level at 5 uM preincubated for 3 hrs followed by LPS-stimulation and measured after 1 hr by Western blot analysis (reference value: 0.28)", "format": "cell-based"}, "RAW264.7 [10]": {"tested_on": "RAW264.7", "assay": "Inhibition of LPS-induced ERK phosphorylation in mouse RAW264.7 cell at 10 uM preincubated for 3 hrs followed by LPS-stimulation and measured after 1 hr by Western blot analysis (reference value: 6.92)", "format": "cell-based"}, "RAW264.7 [11]": {"tested_on": "RAW264.7", "assay": "Trans-suppression of NFkappaB in mouse RAW264.7 cells assessed as LPS-induced nuclear-p65 level at 10 uM preincubated for 3 hrs followed by LPS-stimulation and measured after 1 hr by Western blot analysis (reference value: 3.3)", "format": "cell-based"}, "RAW264.7 [12]": {"tested_on": "RAW264.7", "assay": "Inhibition of LPS-induced p38 MAPK protein expression in mouse RAW264.7 cell at 5 uM preincubated for 3 hrs followed by LPS-stimulation and measured after 1 hr by Western blot analysis (reference value: 1.1)", "format": "functional"}, "RAW264.7 [13]": {"tested_on": "RAW264.7", "assay": "Inhibition of LPS-induced JNK phosphorylation in mouse RAW264.7 cell at 2.5 uM preincubated for 3 hrs followed by LPS-stimulation and measured after 1 hr by Western blot analysis (reference value: 8.88)", "format": "cell-based"}, "RAW264.7 [14]": {"tested_on": "RAW264.7", "assay": "Inhibition of LPS-induced ERK protein expression in mouse RAW264.7 cell at 5 uM preincubated for 3 hrs followed by LPS-stimulation and measured after 1 hr by Western blot analysis (reference value: 1.13)", "format": "functional"}, "RAW264.7 [15]": {"tested_on": "RAW264.7", "assay": "Antiinflammatory activity against mouse RAW264.7 cells assessed as inhibition of LPS-induced PGE2 production preincubated for 3 hrs followed by LPS-stimulation and measured after 24 hrs by ELISA", "format": "functional, cell-based"}, "RAW264.7 [16]": {"tested_on": "RAW264.7", "assay": "Inhibition of LPS-induced ERK protein expression in mouse RAW264.7 cell at 10 uM preincubated for 3 hrs followed by LPS-stimulation and measured after 1 hr by Western blot analysis (reference value: 1.13)", "format": "functional"}, "RAW264.7 [17]": {"tested_on": "RAW264.7", "assay": "Trans-suppression of NFkappaB in mouse RAW264.7 cells assessed as LPS-induced IKB-apha phosphorylation at 2.5 uM preincubated for 3 hrs followed by LPS-stimulation and measured after 1 hr by Western blot analysis (reference value: 6.04)", "format": "cell-based"}, "RAW264.7 [18]": {"tested_on": "RAW264.7", "assay": "Trans-suppression of NFkappaB in mouse RAW264.7 cells assessed as LPS-induced IKB-apha phosphorylation at 5 uM preincubated for 3 hrs followed by LPS-stimulation and measured after 1 hr by Western blot analysis (reference value: 6.04)", "format": "cell-based"}, "RAW264.7 [19]": {"tested_on": "RAW264.7", "assay": "Inhibition of LPS-induced JNK protein expression in mouse RAW264.7 cell at 10 uM preincubated for 3 hrs followed by LPS-stimulation and measured after 1 hr by Western blot analysis (reference value: 1.21)", "format": "functional"}, "RAW264.7 [20]": {"tested_on": "RAW264.7", "assay": "Trans-suppression of NFkappaB in mouse RAW264.7 cells assessed as LPS-induced cytosol-p65 level at 2.5 uM preincubated for 3 hrs followed by LPS-stimulation and measured after 1 hr by Western blot analysis (reference value: 0.09)", "format": "cell-based"}, "RAW264.7 [21]": {"tested_on": "RAW264.7", "assay": "Inhibition of LPS-induced JNK protein expression in mouse RAW264.7 cell at 5 uM preincubated for 3 hrs followed by LPS-stimulation and measured after 1 hr by Western blot analysis (reference value: 1.21)", "format": "functional"}, "RAW264.7 [22]": {"tested_on": "RAW264.7", "assay": "Antiinflammatory activity against mouse RAW264.7 cells assessed as LPS-induced COX-2 mRNA expression at 5 uM preincubated for 3 hrs followed by LPS-stimulation and measured after 24 hrs by RT-PCR analysis (reference value: 14.39)", "format": "functional"}, "RAW264.7 [23]": {"tested_on": "RAW264.7", "assay": "Trans-suppression of NFkappaB in mouse RAW264.7 cells assessed as LPS-induced nuclear-p50 level at 2.5 uM preincubated for 3 hrs followed by LPS-stimulation and measured after 1 hr by Western blot analysis (reference value: 3.2)", "format": "cell-based"}, "RAW264.7 [24]": {"tested_on": "RAW264.7", "assay": "Trans-suppression of NFkappaB in mouse RAW264.7 cells assessed as LPS-induced cytosol-p65 level at 10 uM preincubated for 3 hrs followed by LPS-stimulation and measured after 1 hr by Western blot analysis (reference value: 0.09)", "format": "cell-based"}, "RAW264.7 [25]": {"tested_on": "RAW264.7", "assay": "Trans-suppression of NFkappaB in mouse RAW264.7 cells assessed as LPS-induced nuclear-p50 level at 10 uM preincubated for 3 hrs followed by LPS-stimulation and measured after 1 hr by Western blot analysis (reference value: 3.2)", "format": "cell-based"}, "[26]": {"biological_target": "T1, MAP kinase p38 (Mus musculus)", "assay": "Inhibition of LPS-induced p38 MAPK phosphorylation in mouse RAW264.7 cell at 2.5 uM preincubated for 3 hrs followed by LPS-stimulation and measured after 1 hr by Western blot analysis (reference value: 5.59)", "format": "cell-based"}}}
{"compound": "COc1cc(OC)c2c(O)c3c(=O)cc(C)oc3c(-c3c(O)cc4cc(O)c5c(=O)cc(C)oc5c4c3OC)c2c1", "note": "(atropisomer aS) [ASPERPYRONE A]", "values": [{"measurement": "fold change (FC)", "setting": "RAW264.7 [1]", "result": 0.55}, {"measurement": "fold change (FC)", "setting": "RAW264.7 [2]", "result": 3.69}, {"measurement": "fold change (FC)", "setting": "RAW264.7 [3]", "result": 3.28}, {"measurement": "fold change (FC)", "setting": "RAW264.7 [4]", "result": 1.05}, {"measurement": "inhibition", "setting": "RAW264.7 [5]", "result": "Dose-dependent effect"}, {"measurement": "fold change (FC)", "setting": "RAW264.7 [6]", "result": 8.48}, {"measurement": "fold change (FC)", "setting": "RAW264.7 [7]", "result": 1.12}, {"measurement": "fold change (FC)", "setting": "[8]", "result": 5.63}, {"measurement": "fold change (FC)", "setting": "RAW264.7 [9]", "result": 0.87}, {"measurement": "fold change (FC)", "setting": "RAW264.7 [10]", "result": 7.03}, {"measurement": "fold change (FC)", "setting": "RAW264.7 [11]", "result": 1.54}, {"measurement": "fold change (FC)", "setting": "RAW264.7 [12]", "result": 0.98}, {"measurement": "fold change (FC)", "setting": "RAW264.7 [13]", "result": 8.73}, {"measurement": "fold change (FC)", "setting": "RAW264.7 [14]", "result": 1.09}, {"measurement": "inhibition", "setting": "RAW264.7 [15]", "result": "Dose-dependent effect"}, {"measurement": "fold change (FC)", "setting": "RAW264.7 [16]", "result": 1.1}, {"measurement": "fold change (FC)", "setting": "RAW264.7 [17]", "result": 2.93}, {"measurement": "fold change (FC)", "setting": "RAW264.7 [18]", "result": 3.21}, {"measurement": "fold change (FC)", "setting": "RAW264.7 [19]", "result": 1.19}, {"measurement": "fold change (FC)", "setting": "RAW264.7 [20]", "result": 0.42}, {"measurement": "fold change (FC)", "setting": "RAW264.7 [21]", "result": 1.16}, {"measurement": "fold change (FC)", "setting": "RAW264.7 [22]", "result": 7.56}, {"measurement": "fold change (FC)", "setting": "RAW264.7 [23]", "result": 1.99}, {"measurement": "fold change (FC)", "setting": "RAW264.7 [24]", "result": 1.04}, {"measurement": "fold change (FC)", "setting": "RAW264.7 [25]", "result": 0.89}, {"measurement": "fold change (FC)", "setting": "[26]", "result": 5.63}]}
